{"source": "patent US7528252B2", "about": "“Derivatives of triazoly-imidazopyridine useful as ligands of the adenosine A2a receptor and their use as medicaments” (Sigma-Tau Industrie Farmaceutiche Riunite S.p.A., priority 2002, dated 2009)", "format_in_all_cases": "in vivo", "key": {"CD1 male mice [1]": {"tested_on": "CD1 male mice", "assay": "Effects on spontaneous motor activity in mice", "conditions": "for Horizontal activity / Vertical activity: mean ± s.e.", "method": "For this study, type CD1 male mice (n=8) were used. The effects of the products under study and of the reference compounds were evaluated using an apparatus consisting of a Plexiglas cage (40 cm×40 cm) surrounded by a series of photocells which monitor the movements of the animals placed inside, connected a computerised system, through which, the signals are collected and later elaborated.\nTests were carried out, after endoperitoneal administration of the products. 15 minutes after treatment, the treated animals, alternating with the controls, were placed inside the cage so as to record their spontaneous movements over a total period of 45 minutes broken down into two observation intervals (15′-45′ and 45′-60′, with respect to the time after treatment).\nTo examine the possible effects of the compounds studied on motor activity, the following parameters were considered: horizontal activity, vertical activity: total distance.\nExcept for CGS 21680 (reference compound, described in EP 0 277 917, Ciba-Geigy) which was dissolved in 0.9% NaCl, the products studied were solubilised in DMSO and then diluted in Cremofor EL and 0.9% NaCl (final concentrations: DMSO 15%, Cremofor EL 15%, NaCl 0.9%."}, "CD1 male mice [2]": {"tested_on": "CD1 male mice", "assay": "Capacity of the products to induce catalepsy in mice", "conditions": "endoperitoneal, 30 minutes prior to the test", "method": "10 CD1 male mice were used per group. For this test, a steel bar, 10 cm long, was placed at a height of 4.5 cm above the support surface. Onto this, were placed the front legs of the animals. The presence of catalepsy was determined by measuring the time (in seconds) the animal remained in the posture placed. Later, this parameter was placed relatively, on a scale of rising values (0 to 5) through which, the degree of catalepsy determined in both control animals and in these subjected to treatment with the substances under test could be proportionately expressed.\nThe reference products and these in this study were administered endoperitoneally, in a volume of 10 ml/kg, 30 minutes prior to the test.\nExcept for CGS 21680 (reference compound) which was dissolved in 0.9% NaCl, the products in the study and the control antagonist ZM 241385 were solubilised in DMSO and then diluted in Cremofor EL and 0.9% NaCl (final concentrations: DMSO 15%, Cremofor EL 15%, NaCl 0.9%)."}, "CD1 mice": {"tested_on": "CD1 mice", "assay": "Associated L-DOPA and A2a antagonists on Haloperidol-induced catalepsy", "conditions": "ST 1535 1.25 or 2.5 mg/kg per os; L-DOPA 12.5 mg/kg; benserazide 3.12 mg/kg i.p.; Haloperidol 4 mg/kg i.p.", "method": "For this study, product ST 1535 was used.\nCD1 mice, divided into different experimental groups (n=10 per group) were used. All animals were subjected to treatment with Haloperidol (4 mg/kg, i.p.) two hours and 30′ prior to the catalepsy test, carried out according to the method described above.\nLater, the animals were subjected to different types of treatment according to their original experimental group (see diagram). All catalepsy evaluations were carried out 2 hours and 30 minutes after Haloperidol treatment.\nHaloperidol+ST 1535: ST 1535 2.5 mg/kg, per os, 75′ prior to testing;\nHaloperidol+benserazide+L-Dopa: Benserazide 3.12 mg/kg i.p., 90′ prior to testing;\nL-DOPA:. 12.5 mg/kg, 60′ prior to testing;\nAloperidol+benserazide+L-Dopa+ST 1535: Benserazide 3.12 mg/kg i.p., 90′ prior to testing;\nL-DOPA 12.5 mg/kg, 60′ prior to testing;"}, "mice": {"tested_on": "mice", "assay": "Forced swim test in mice", "conditions": "60 minutes before the test; 4 minutes of testing period", "method": "Mice were dropped individually into glass cylinders (height: 25 cm, internal diameter 10 cm) containing 10 cm water, maintained at 23° C. The immobility time (sec) was measured during 4 minutes of test. A mouse was judged to be immobile when it remained floating in the water, making only the necessary movements to keep its head above water. Test compound ST 1535 was administered orally to mice, 60 minutes before the test."}, "[3]": {"conditions": "2.5 mg/kg endoperitoneal, interval 15′-45′ from treatment"}, "[4]": {"conditions": "2.5 mg/kg endoperitoneal, interval 45′-60′ from treatment"}, "[5]": {"conditions": "5 mg/kg endoperitoneal, interval 15′-45′ from treatment"}, "[6]": {"conditions": "5 mg/kg endoperitoneal, interval 45′-60′ from treatment"}, "[7]": {"conditions": "10 mg/kg endoperitoneal, interval 15′-45′ from treatment"}, "[8]": {"conditions": "10 mg/kg endoperitoneal, interval 45′-60′ from treatment"}, "[9]": {"conditions": "20 mg/kg endoperitoneal, interval 15′-45′ from treatment"}, "[10]": {"conditions": "20 mg/kg endoperitoneal, interval 45′-60′ from treatment"}}}
{"smiles": "CCCCc1nc(N)c2nc(-n3nccn3)n(C)c2n1", "note": "[ST 1535, 2-butyl-9-methyl-8-(2H-1,2,3-triazol-2-yl)-9H-purine-6-ylamine]", "values": [{"measurement": "Horizontal activity", "setting": "CD1 male mice [1]; [3]", "value": "5386 ± 505"}, {"measurement": "Vertical activity", "setting": "CD1 male mice [1]; [3]", "value": "282 ± 79"}, {"measurement": "Horizontal activity", "setting": "CD1 male mice [1]; [4]", "value": "1693 ± 266"}, {"measurement": "Vertical activity", "setting": "CD1 male mice [1]; [4]", "value": "68 ± 21"}, {"measurement": "Horizontal activity", "setting": "CD1 male mice [1]; [5]", "value": "7549 ± 508"}, {"measurement": "Vertical activity", "setting": "CD1 male mice [1]; [5]", "value": "249 ± 41"}, {"measurement": "Horizontal activity", "setting": "CD1 male mice [1]; [6]", "value": "2353 ± 199"}, {"measurement": "Vertical activity", "setting": "CD1 male mice [1]; [6]", "value": "76 ± 16"}, {"measurement": "Horizontal activity", "setting": "CD1 male mice [1]; [7]", "value": "7434 ± 526"}, {"measurement": "Vertical activity", "setting": "CD1 male mice [1]; [7]", "value": "219 ± 64"}, {"measurement": "Horizontal activity", "setting": "CD1 male mice [1]; [8]", "value": "2784 ± 345"}, {"measurement": "Vertical activity", "setting": "CD1 male mice [1]; [8]", "value": "71 ± 32"}, {"measurement": "Horizontal activity", "setting": "CD1 male mice [1]; [9]", "value": "10524 ± 670"}, {"measurement": "Vertical activity", "setting": "CD1 male mice [1]; [9]", "value": "486 ± 84"}, {"measurement": "Horizontal activity", "setting": "CD1 male mice [1]; [10]", "value": "3321 ± 363"}, {"measurement": "Vertical activity", "setting": "CD1 male mice [1]; [10]", "value": "148 ± 36"}, {"measurement": "dose from which a significant increase of the spontaneous motor activity in mice is observed", "setting": "CD1 male mice [1]; endoperitoneal", "value": "≥ 5", "unit": "mg/kg"}, {"measurement": "appearance of catalepsy in mice (FIG. 1)", "setting": "CD1 male mice [2]", "value": "none of them brought about the appearance of catalepsy in mice"}, {"measurement": "combination with sub threshold dose of L-DOPA plus benserazide on Haloperidol-induced catalepsy (FIG. 4)", "setting": "CD1 mice", "value": "potentiates the anticataleptic activity of treatment with ineffective doses of L-DOPA and benserazide"}, {"measurement": "time of immobility, forced swim test (FIG. 5)", "setting": "mice", "value": "reduces, in a dose-dependant manner, the time of immobility of the animal"}]}
